Here are results for 2 molecules from article PMC11821258 (Molecules, 2025).

Experiment [1] has as its system human colon cancer HCT116 cells. Particulars: HCT116, literature data ref 36; cited from earlier work.
The subject of experiment [2] is human breast cancer MCF-7. Conditions: MCF-7, literature data ref 36; cited from earlier work.
Experiment [3] relates to human prostate adenocarcinoma PC-3. Conditions: PC-3, literature data ref 36; cited from earlier work.
In experiment [4] the test system is human normal epithelial cells from the mammary gland (MCF-10A). Conditions: literature data ref 36; cited from earlier work.
Experiment [5] concerns human biphenotypic B myelomonocytic leukemia MV4-11. Particulars: MV4-11, literature data ref 36; cited from earlier work.
The test system of experiment [6] is human lung carcinoma A549. Particulars: A549, literature data ref 36; cited from earlier work.
The next experiment deals with MV4-11 cells. Nature of the experiment: Apoptosis determination via Annexin V and PI staining. Conditions: MV4-11, 24 h. The class given is cell-based, human. The method, then: Camptothecin at a concentration of 0.05 uM was used as a positive control. After incubation, the cells were collected and counted with a hemocytometer, and 1×10^5 cells were washed twice with PBS. APC-Annexin V (Becton Dickinson, Pharmingen, Franklin Lakes, NJ, USA) was dissolved to the concentration of […] in a binding buffer (10 mM HEPES/NaOH, pH 7.4; 150 mM NaCl; 5 mM KCl; 1 mM MgCl2; and 1.8 mM CaCl2) (HIIET, Wrocław, Poland), and the cells were suspended in 200 µL of this solution. After 15 min of the incubation in the dark at room temperature, 20 µL of propidium iodide (PI) solution (0.02 mg/mL) was added. Data acquisition was performed by conducting flow cytometry using a BD LSRFortessa cytometer (BD Bioscience, San Jose, CA, USA). The compounds were tested at least three times independently. Results were analyzed using Flowing software 2.5.1 (Turku, Finland). […] Double-negative cells were live cells, PI+/Annexin V+ were late apoptotic cells, PI-/Annexin V+ were early apoptotic cells, and PI+/Annexin V- were necrotic cells.

Experiment [7] relates to caspase-3/7 in MV4-11 cells. Briefly: Caspase-3/7 activity determination. Particulars: MV4-11, positive control. The experiment is classed as cell-based, human. The method, then:
The MV4-11 cells were seeded on 48-well plates to the final volume of 1 mL. […] After incubation, the cells were collected and centrifuged (5 min, 4 °C, 250× g). Cells were suspended in 50 µL of ice-cold lysis buffer (50 mM HEPES; 10% (w/v) sucrose; 150 mM NaCl; 2 mM EDTA; 1% (v/v) Triton X-100, pH 7.3; and HIIET, Wrocław, Poland) and incubated for 30 min at 4 °C. After the incubation, 40 µL of each sample was transferred to a white 96-well plate (Corning, USA) containing 160 µL of the reaction buffer (20 mM HEPES; 10% sucrose; 100 mM NaCl; 1 mM EDTA; 10 mM DTT; and 0.02% Trition X-100, pH 7.3) (HIIET, Wrocław, Poland) with a 9 µM AC-DEVD-AMC (Cayman Chemical, Ann Arbor, MI, USA) fluorogenic substrate (λex = 360 nm, λem = 460 nm). The correlation of the fluorescence increase with the caspase-3/7 level was continuously recorded at 37 °C for 120 min using Biotek Synergy H4 (Biokom, Warsaw, Poland). Compounds were tested in duplicates in single experiments, and each experiment was repeated at least three times independently. Results were normalized to the number of cells in each well and are reported as the mean relative caspase-3/7 activity compared to the untreated control sample ± SD.

The structures appear in SMILES notation.

Take `COc1cccc2c1C(=O)c1c(O)c3c(c(O)c1C2=O)C[C@@](O)(C(=O)CO)C[C@@H]3O[C@H]1C[C@H](N)[C@H](O)[C@H](C)O1` [C, doxorubicin]: the IC50 is 118 ± 20 nM in experiment [1]; 150 ± 15 nM in experiment [2]; 1270 ± 200 nM in experiment [3]; 114 ± 13 nM in experiment [4]; 21 ± 8 nM in experiment [5]; 40 ± 12 nM in experiment [6].
With `CC[C@@]1(O)C(=O)OCc2c1cc1n(c2=O)Cc2cc3ccccc3nc2-1` [camptothecin, reference compound], the induction of apoptosis result in the experiment with MV4-11 cells is on record as “induced apoptosis”. Moreover, the “activity of caspase-3 in comparison to control cells” value in experiment [7] is recorded as 5 fold.
